Experimental data published in the supplement of paper PMC10307832.

Tests used:
Assay in all cases: relative viability (nuclei count vs DMSO), 5 days (fraction); higher = more cells survive
[1] = tested on: ABC-1
Outline: (§1)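 Lung cancer cell lines were pin-tool dosed in 1536-well plates on the day after seeding, with either a lone drug or a fixed anchor-drug dose plus five library-drug doses (not always all listed) in √10 steps. Nuclei were counted on 4× images after 5 days. Relative viability is the ratio of treated-well to vehicle-well nuclei counts, with each value a median of duplicate plates.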

[2] = tested on: BEN
Outline: as §1

[3] = tested on: EPLC-272H
Outline: as §1

[4] = tested on: HCC-827
Outline: as §1

[5] = tested on: HOP-62
Outline: as §1

[6] = tested on: LU99A
Outline: as §1

[7] = tested on: NCI-H1355
Outline: as §1

[8] = tested on: NCI-H1666
Outline: as §1

[9] = tested on: NCI-H1792
Outline: as §1

[10] = tested on: NCI-H1975
Outline: as §1

[11] = tested on: NCI-H2170
Outline: as §1

[12] = tested on: NCI-H23
Outline: as §1

[13] = tested on: NCI-H2405
Outline: as §1

[14] = tested on: NCI-H3122
Outline: as §1

[15] = tested on: NCI-H322M
Outline: as §1

[16] = tested on: NCI-H358
Outline: as §1

[17] = tested on: NCI-H520
Outline: as §1

[18] = tested on: NCI-H596
Outline: as §1

[19] = tested on: NCI-H647
Outline: as §1

[20] = tested on: NCI-H727
Outline: as §1

[21] = tested on: NCI-H838
Outline: as §1

[22] = tested on: PC-14
Outline: as §1

[23] = tested on: UMC-11
Outline: as §1

Q: `O=c1[nH]c2ccccc2n1C1CCN(CCCC(c2ccc(F)cc2)c2ccc(F)cc2)CC1` [Pimozide] + CS(=O)(=O)CCNCc1ccc(-c2ccc3ncnc(Nc4ccc(OCc5cccc(F)c5)c(Cl)c4)c3c2)o1 [Lapatinib] (partner 2 µM) was tested. Which relative viability ([1]; first compound 0.08 µM) did it give?
A: 1.18

Q: And the relative viability ([1]; first compound 0.253 µM)?
A: 0.951

Q: What about the relative viability ([1]; first compound 0.8 µM) of the same molecule?
A: 1.13

Q: What about the relative viability ([1]; first compound 2.53 µM) of the same molecule?
A: 1.16

Q: What about the relative viability ([1]; first compound 8 µM) of the same molecule?
A: 1.22

Q: What about the relative viability ([2]; first compound 0.08 µM) of the same molecule?
A: 0.615

Q: What about the relative viability ([2]; first compound 0.253 µM) of the same molecule?
A: 0.854

Q: What about the relative viability ([2]; first compound 0.8 µM) of the same molecule?
A: 0.73

Q: What about the relative viability ([2]; first compound 2.53 µM) of the same molecule?
A: 0.669

Q: What about the relative viability ([2]; first compound 8 µM) of the same molecule?
A: 0.728

Q: And the relative viability ([3]; first compound 0.08 µM)?
A: 0.819

Q: What about the relative viability ([3]; first compound 0.253 µM) of the same molecule?
A: 0.945

Q: What about the relative viability ([3]; first compound 0.8 µM) of the same molecule?
A: 0.716

Q: And the relative viability ([3]; first compound 2.53 µM)?
A: 0.809

Q: And the relative viability ([3]; first compound 8 µM)?
A: 0.689

Q: And the relative viability ([4]; first compound 0.253 µM)?
A: 0.205

Q: What about the relative viability ([4]; first compound 0.8 µM) of the same molecule?
A: 0.189

Q: And the relative viability ([4]; first compound 2.53 µM)?
A: 0.179

Q: And the relative viability ([4]; first compound 8 µM)?
A: 0.194

Q: What about the relative viability ([5]; first compound 0.08 µM) of the same molecule?
A: 0.917

Q: And the relative viability ([5]; first compound 0.253 µM)?
A: 1.09

Q: What about the relative viability ([5]; first compound 2.53 µM) of the same molecule?
A: 0.995

Q: And the relative viability ([5]; first compound 8 µM)?
A: 1.06

Q: What about the relative viability ([6]; first compound 0.08 µM) of the same molecule?
A: 0.969

Q: What about the relative viability ([6]; first compound 0.253 µM) of the same molecule?
A: 0.982

Q: What about the relative viability ([6]; first compound 0.8 µM) of the same molecule?
A: 0.757

Q: What about the relative viability ([6]; first compound 2.53 µM) of the same molecule?
A: 1.03

Q: And the relative viability ([6]; first compound 8 µM)?
A: 0.888

Q: What about the relative viability ([7]; first compound 0.08 µM) of the same molecule?
A: 1.02

Q: And the relative viability ([7]; first compound 0.253 µM)?
A: 1.09

Q: What about the relative viability ([7]; first compound 0.8 µM) of the same molecule?
A: 0.933

Q: What about the relative viability ([7]; first compound 2.53 µM) of the same molecule?
A: 0.939

Q: What about the relative viability ([7]; first compound 8 µM) of the same molecule?
A: 0.982

Q: What about the relative viability ([8]; first compound 0.08 µM) of the same molecule?
A: 0.592

Q: What about the relative viability ([8]; first compound 0.253 µM) of the same molecule?
A: 0.716

Q: What about the relative viability ([8]; first compound 0.8 µM) of the same molecule?
A: 0.621

Q: What about the relative viability ([8]; first compound 2.53 µM) of the same molecule?
A: 0.365

Q: What about the relative viability ([8]; first compound 8 µM) of the same molecule?
A: 0.464

Q: What about the relative viability ([9]; first compound 0.08 µM) of the same molecule?
A: 0.888

Q: What about the relative viability ([9]; first compound 0.253 µM) of the same molecule?
A: 0.784

Q: And the relative viability ([9]; first compound 0.8 µM)?
A: 0.83

Q: What about the relative viability ([9]; first compound 2.53 µM) of the same molecule?
A: 0.846

Q: And the relative viability ([9]; first compound 8 µM)?
A: 0.869

Q: What about the relative viability ([10]; first compound 0.08 µM) of the same molecule?
A: 0.928

Q: And the relative viability ([10]; first compound 0.253 µM)?
A: 0.848

Q: What about the relative viability ([10]; first compound 0.8 µM) of the same molecule?
A: 0.945

Q: What about the relative viability ([10]; first compound 2.53 µM) of the same molecule?
A: 0.897

Q: What about the relative viability ([10]; first compound 8 µM) of the same molecule?
A: 0.751

Q: And the relative viability ([11]; first compound 0.08 µM)?
A: 0.277

Q: What about the relative viability ([11]; first compound 0.253 µM) of the same molecule?
A: 0.278

Q: What about the relative viability ([11]; first compound 0.8 µM) of the same molecule?
A: 0.276

Q: And the relative viability ([11]; first compound 2.53 µM)?
A: 0.283

Q: What about the relative viability ([11]; first compound 8 µM) of the same molecule?
A: 0.272

Q: And the relative viability ([12]; first compound 0.08 µM)?
A: 0.938

Q: And the relative viability ([12]; first compound 0.253 µM)?
A: 1.01

Q: And the relative viability ([12]; first compound 0.8 µM)?
A: 1.06

Q: And the relative viability ([12]; first compound 2.53 µM)?
A: 0.847

Q: And the relative viability ([12]; first compound 8 µM)?
A: 0.922

Q: What about the relative viability ([13]; first compound 0.08 µM) of the same molecule?
A: 1.02

Q: And the relative viability ([13]; first compound 0.253 µM)?
A: 0.833

Q: What about the relative viability ([13]; first compound 0.8 µM) of the same molecule?
A: 0.984

Q: What about the relative viability ([13]; first compound 2.53 µM) of the same molecule?
A: 1.04

Q: And the relative viability ([13]; first compound 8 µM)?
A: 0.79

Q: What about the relative viability ([14]; first compound 0.08 µM) of the same molecule?
A: 1

Q: And the relative viability ([14]; first compound 0.253 µM)?
A: 1

Q: What about the relative viability ([14]; first compound 0.8 µM) of the same molecule?
A: 0.813

Q: And the relative viability ([14]; first compound 2.53 µM)?
A: 1

Q: What about the relative viability ([14]; first compound 8 µM) of the same molecule?
A: 1.01

Q: What about the relative viability ([15]; first compound 0.253 µM) of the same molecule?
A: 0.56

Q: And the relative viability ([15]; first compound 0.8 µM)?
A: 0.584

Q: What about the relative viability ([15]; first compound 2.53 µM) of the same molecule?
A: 0.635

Q: What about the relative viability ([15]; first compound 8 µM) of the same molecule?
A: 0.525

Q: What about the relative viability ([16]; first compound 0.08 µM) of the same molecule?
A: 0.506

Q: What about the relative viability ([16]; first compound 0.253 µM) of the same molecule?
A: 0.488

Q: And the relative viability ([16]; first compound 0.8 µM)?
A: 0.433

Q: And the relative viability ([16]; first compound 2.53 µM)?
A: 0.477

Q: And the relative viability ([16]; first compound 8 µM)?
A: 0.4

Q: What about the relative viability ([17]; first compound 0.08 µM) of the same molecule?
A: 0.863

Q: And the relative viability ([17]; first compound 0.253 µM)?
A: 0.922

Q: What about the relative viability ([17]; first compound 0.8 µM) of the same molecule?
A: 0.621

Q: What about the relative viability ([17]; first compound 2.53 µM) of the same molecule?
A: 0.821

Q: What about the relative viability ([17]; first compound 8 µM) of the same molecule?
A: 0.776

Q: And the relative viability ([18]; first compound 0.08 µM)?
A: 1

Q: What about the relative viability ([18]; first compound 0.253 µM) of the same molecule?
A: 1.15

Q: And the relative viability ([18]; first compound 0.8 µM)?
A: 1.16

Q: And the relative viability ([18]; first compound 2.53 µM)?
A: 1.01

Q: What about the relative viability ([18]; first compound 8 µM) of the same molecule?
A: 0.87

Q: What about the relative viability ([19]; first compound 0.08 µM) of the same molecule?
A: 1.18

Q: What about the relative viability ([19]; first compound 0.253 µM) of the same molecule?
A: 1.03

Q: And the relative viability ([19]; first compound 0.8 µM)?
A: 0.973

Q: And the relative viability ([19]; first compound 2.53 µM)?
A: 0.964

Q: And the relative viability ([19]; first compound 8 µM)?
A: 0.58

Q: What about the relative viability ([20]; first compound 0.08 µM) of the same molecule?
A: 0.8

Q: And the relative viability ([20]; first compound 0.253 µM)?
A: 0.922

Q: And the relative viability ([20]; first compound 0.8 µM)?
A: 0.85

Q: What about the relative viability ([20]; first compound 2.53 µM) of the same molecule?
A: 0.754

Q: And the relative viability ([20]; first compound 8 µM)?
A: 0.769

Q: What about the relative viability ([21]; first compound 0.08 µM) of the same molecule?
A: 1.18

Q: And the relative viability ([21]; first compound 0.253 µM)?
A: 1.07

Q: And the relative viability ([21]; first compound 0.8 µM)?
A: 0.954

Q: And the relative viability ([21]; first compound 2.53 µM)?
A: 0.822

Q: What about the relative viability ([21]; first compound 8 µM) of the same molecule?
A: 0.829

Q: And the relative viability ([22]; first compound 0.253 µM)?
A: 0.38

Q: What about the relative viability ([22]; first compound 0.8 µM) of the same molecule?
A: 0.297

Q: What about the relative viability ([22]; first compound 2.53 µM) of the same molecule?
A: 0.334

Q: What about the relative viability ([22]; first compound 8 µM) of the same molecule?
A: 0.325

Q: And the relative viability ([23]; first compound 0.08 µM)?
A: 1.07

Q: What about the relative viability ([23]; first compound 0.253 µM) of the same molecule?
A: 0.957

Q: What about the relative viability ([23]; first compound 0.8 µM) of the same molecule?
A: 0.821

Q: And the relative viability ([23]; first compound 2.53 µM)?
A: 0.934

Q: And the relative viability ([23]; first compound 8 µM)?
A: 0.56
